PubChem BioAssay AID1919010 (Molecular Pharmacology Branch, DTP, NCI, 2023)

Test system: Hs578T complex spheroid growth, percent test/control
Assay: Anticancer human tumor Hs578T cell line growth inhibition [AhR];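 further: luminescent viability signal as a proxy for spheroid growth; spheroids exposed to agents for one week after three days of growth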
Settings: for IC50: curve of first compound; for viability, T/C: stronger effect = lower value
Summary of the method: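 Agents were dosed in half-log steps down from roughly clinical Cmax, or from 10 microM where Cmax was unknown, alone and with AhR antagonists. Read-out: percent test/control growth of tumor spheroids containing HUVEC and MSC stromal cells.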

Q: `Cn1ncnc1C1c2n[nH]c(=O)c3cc(F)cc(c23)NC1c1ccc(F)cc1` (stereo not given) + Cc1ccccc1N=Nc1ccc(NC(=O)c2ccnn2C)c(C)c1 was tested. Which IC50 (second compound 0.1 µM) did it give?
A: Its IC50 is over 100 nM.

Q: What about the IC50 (second compound 0.316 µM) of the same molecule?
A: Its IC50 is over 100 nM.

Q: What about the IC50 (second compound 1 µM) of the same molecule?
A: Its IC50 is over 100 nM.

Q: What about the IC50 (second compound 3.16 µM) of the same molecule?
A: Its IC50 is over 100 nM.

Q: And the IC50 (second compound 10 µM)?
A: The IC50 was over 100 nM.

Q: What about the viability, T/C (second compound 0.1 µM, first compound 0.000316 µM) of the same molecule?
A: Its viability, T/C is 109%.

Q: And the viability, T/C (second compound 0.1 µM, first compound 0.001 µM)?
A: Its viability, T/C is 104%.

Q: What about the viability, T/C (second compound 0.1 µM, first compound 0.00316 µM) of the same molecule?
A: Its viability, T/C is 105%.

Q: And the viability, T/C (second compound 0.1 µM, first compound 0.01 µM)?
A: Its viability, T/C is 105%.

Q: And the viability, T/C (second compound 0.1 µM, first compound 0.0316 µM)?
A: Its viability, T/C is 100%.

Q: What about the viability, T/C (second compound 0.1 µM, first compound 0.1 µM) of the same molecule?
A: Its viability, T/C is 99.5%.

Q: And the viability, T/C (second compound 0.316 µM, first compound 0.000316 µM)?
A: The viability, T/C was 121%.

Q: And the viability, T/C (second compound 0.316 µM, first compound 0.001 µM)?
A: Its viability, T/C is 117%.

Q: What about the viability, T/C (second compound 0.316 µM, first compound 0.00316 µM) of the same molecule?
A: Its viability, T/C is 109%.

Q: And the viability, T/C (second compound 0.316 µM, first compound 0.01 µM)?
A: The viability, T/C was 105%.

Q: And the viability, T/C (second compound 0.316 µM, first compound 0.0316 µM)?
A: Its viability, T/C is 106%.

Q: And the viability, T/C (second compound 0.316 µM, first compound 0.1 µM)?
A: The viability, T/C was 107%.

Q: What about the viability, T/C (second compound 1 µM, first compound 0.000316 µM) of the same molecule?
A: The viability, T/C was 108%.

Q: What about the viability, T/C (second compound 1 µM, first compound 0.001 µM) of the same molecule?
A: The viability, T/C was 105%.

Q: And the viability, T/C (second compound 1 µM, first compound 0.00316 µM)?
A: The viability, T/C was 107%.

Q: And the viability, T/C (second compound 1 µM, first compound 0.01 µM)?
A: The viability, T/C was 104%.

Q: And the viability, T/C (second compound 1 µM, first compound 0.0316 µM)?
A: Its viability, T/C is 107%.

Q: What about the viability, T/C (second compound 1 µM, first compound 0.1 µM) of the same molecule?
A: The viability, T/C was 99.7%.

Q: And the viability, T/C (second compound 3.16 µM, first compound 0.000316 µM)?
A: Its viability, T/C is 94.4%.

Q: And the viability, T/C (second compound 3.16 µM, first compound 0.001 µM)?
A: Its viability, T/C is 103%.

Q: What about the viability, T/C (second compound 3.16 µM, first compound 0.00316 µM) of the same molecule?
A: The viability, T/C was 101%.

Q: What about the viability, T/C (second compound 3.16 µM, first compound 0.01 µM) of the same molecule?
A: The viability, T/C was 93.9%.

Q: And the viability, T/C (second compound 3.16 µM, first compound 0.0316 µM)?
A: The viability, T/C was 99.9%.

Q: What about the viability, T/C (second compound 3.16 µM, first compound 0.1 µM) of the same molecule?
A: The viability, T/C was 99%.

Q: What about the viability, T/C (second compound 10 µM, first compound 0.000316 µM) of the same molecule?
A: Its viability, T/C is 73.7%.

Q: And the viability, T/C (second compound 10 µM, first compound 0.001 µM)?
A: Its viability, T/C is 71.2%.

Q: And the viability, T/C (second compound 10 µM, first compound 0.00316 µM)?
A: Its viability, T/C is 76.7%.

Q: What about the viability, T/C (second compound 10 µM, first compound 0.01 µM) of the same molecule?
A: The viability, T/C was 81.7%.

Q: And the viability, T/C (second compound 10 µM, first compound 0.0316 µM)?
A: The viability, T/C was 69%.

Q: And the viability, T/C (second compound 10 µM, first compound 0.1 µM)?
A: Its viability, T/C is 72.2%.
